Results published in patent US7582649B2, “Hydroxy alkyl substituted 1,3,8-triazaspiro[4.5]decan-4-one derivatives useful for the treatment of ORL-1 receptor mediated disorders” (Janssen Pharmaceutica, NV, priority 2002, dated 2009).
Where a name gives a salt, the structure may show the parent alone.

Assays:
mu opioid receptor = mu opioid receptor (Homo sapiens, UniProt P35372); assay: Filtration binding assay: mu opioid receptor
kappa opioid receptor = kappa opioid receptor (Homo sapiens, UniProt P41145); assay: Filtration binding assay: kappa opioid receptor
kappa opioid receptor, sequence (P41145 whole entry): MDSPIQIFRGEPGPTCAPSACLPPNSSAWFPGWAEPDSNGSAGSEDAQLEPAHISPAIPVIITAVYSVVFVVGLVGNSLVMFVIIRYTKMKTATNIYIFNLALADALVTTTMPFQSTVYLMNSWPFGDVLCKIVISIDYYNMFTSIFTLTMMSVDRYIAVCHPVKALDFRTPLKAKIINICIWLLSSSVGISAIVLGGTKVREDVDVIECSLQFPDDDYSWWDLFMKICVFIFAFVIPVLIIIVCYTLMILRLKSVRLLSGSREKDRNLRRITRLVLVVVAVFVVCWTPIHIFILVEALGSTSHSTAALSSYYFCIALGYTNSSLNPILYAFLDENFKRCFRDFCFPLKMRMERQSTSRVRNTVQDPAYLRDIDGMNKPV

delta opioid receptor = delta opioid receptor (Homo sapiens, UniProt P41143); assay: Filtration binding assay: delta opioid receptor
delta opioid receptor, sequence (P41143 whole entry): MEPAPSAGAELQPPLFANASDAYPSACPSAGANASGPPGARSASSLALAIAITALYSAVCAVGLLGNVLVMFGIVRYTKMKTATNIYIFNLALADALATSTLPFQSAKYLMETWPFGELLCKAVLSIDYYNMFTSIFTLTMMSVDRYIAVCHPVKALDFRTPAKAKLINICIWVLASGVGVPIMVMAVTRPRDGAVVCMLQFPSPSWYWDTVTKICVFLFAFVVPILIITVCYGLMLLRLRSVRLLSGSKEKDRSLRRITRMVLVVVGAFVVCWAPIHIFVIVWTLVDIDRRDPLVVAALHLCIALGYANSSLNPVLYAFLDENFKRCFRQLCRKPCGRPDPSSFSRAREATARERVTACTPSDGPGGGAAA

mu opioid receptor, sequence (P35372 whole entry): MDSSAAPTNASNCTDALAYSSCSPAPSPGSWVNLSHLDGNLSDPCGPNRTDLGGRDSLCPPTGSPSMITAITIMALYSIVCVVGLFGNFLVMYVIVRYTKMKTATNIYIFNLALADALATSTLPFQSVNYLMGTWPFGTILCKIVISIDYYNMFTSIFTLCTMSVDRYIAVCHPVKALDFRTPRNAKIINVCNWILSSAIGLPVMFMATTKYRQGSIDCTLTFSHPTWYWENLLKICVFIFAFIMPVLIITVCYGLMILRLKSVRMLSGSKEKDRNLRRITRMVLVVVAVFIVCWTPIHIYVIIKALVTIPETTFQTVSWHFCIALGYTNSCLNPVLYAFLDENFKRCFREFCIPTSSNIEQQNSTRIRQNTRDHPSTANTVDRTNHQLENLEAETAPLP

## CNCCCNC[C@@H](O)CN1CN(c2ccc(F)cc2)C2(CCN(Cc3cccc4cccc(C)c34)CC2)C1=O [Compound #656, 1-(4-Fluoro-phenyl)-3-[2-(R)-hydroxy-3-(3-methylamino-propylamino)-propyl]-8-(8-methyl-naphthalen-1-ylmethyl)-1,3,8-triaza-spiro[4.5]decan-4-one]
Mu opioid receptor
  Ki: 1520 nM
Kappa opioid receptor
  Ki: 420 nM
Delta opioid receptor
  Ki: > 5000 nM

## COC(=O)c1ccc(CNC[C@H](O)CN2CN(c3ccc(F)cc3)C3(CCN(C4Cc5cccc6cccc4c56)CC3)C2=O)cc1 (mixture of isomers) [compound 348]
Mu opioid receptor
  IC50: 5420 nM
Kappa opioid receptor
  IC50: 930 nM
Delta opioid receptor
  IC50: > 10000 nM

## COc1cccc(CNC[C@H](O)CN2CN(c3ccc(F)cc3)C3(CCN(CC4CCCCCCC4)CC3)C2=O)c1 [compound 35]
Mu opioid receptor
  IC50: 820 nM
Kappa opioid receptor
  IC50: 660 nM
Delta opioid receptor
  IC50: > 10000 nM

## O=C1N(C[C@@H](O)CNCc2ccc(F)cc2F)CN(c2ccc(F)cc2)C12CCN(CC1CCCCCCC1)CC2 [Compound #7]
Mu opioid receptor
  IC50: 1380 nM
Kappa opioid receptor
  IC50: 130 nM
Delta opioid receptor
  IC50: 7110 nM

## Cc1cccc2cccc(CN3CCC4(CC3)C(=O)N(C[C@H](O)CN3CCCC3)CN4c3ccc(F)cc3)c12 [compound 705]
Mu opioid receptor
  Ki: 1500 nM
Kappa opioid receptor
  Ki: 710 nM
Delta opioid receptor
  Ki: > 5000 nM

## CC1(C)[C@H]2CC=C(CN3CCC4(CC3)C(=O)N(C[C@@H]3CO3)CN4c3ccc(F)cc3)[C@@H]1C2 [compound 727]
Mu opioid receptor
  Ki: 120 nM
Kappa opioid receptor
  Ki: 210 nM
Delta opioid receptor
  Ki: > 5000 nM

## O=C1N(C[C@@H](O)CNCCN2CCOCC2)CN(c2ccc(F)cc2)C12CCN(Cc1cccc3ccccc13)CC2 [compound 251]
Mu opioid receptor
  IC50: 1580 nM
Kappa opioid receptor
  IC50: 450 nM
Delta opioid receptor
  IC50: > 10000 nM

## Cc1ccc(CNC[C@H](O)CN2CN(c3ccc(F)cc3)C3(CCN(CC4CCCCCCC4)CC3)C2=O)cc1 [compound 41]
Mu opioid receptor
  IC50: 2100 nM
Kappa opioid receptor
  IC50: 250 nM
Delta opioid receptor
  IC50: > 10000 nM

## CCN(Cc1ccc(C)cc1)C[C@H](O)CN1CN(c2ccc(F)cc2)C2(CCN(Cc3cccc4ccccc34)CC2)C1=O [compound 252]
Mu opioid receptor
  IC50: 3700 nM
Kappa opioid receptor
  IC50: 1340 nM
Delta opioid receptor
  IC50: > 10000 nM

## NC[C@@H](O)CN1CN(c2ccccc2)C2(CCN([C@H]3CC[C@@H]4CCCc5cccc3c54)CC2)C1=O [Compound #640, dihydrochloride]
Mu opioid receptor
  Ki: 120 nM
Kappa opioid receptor
  Ki: 210 nM
Delta opioid receptor
  Ki: > 5000 nM

## O=C1N(C[C@@H](O)CNCC23CC4CC(CC(C4)C2)C3)CN(c2ccc(F)cc2)C12CCN(CC1CCCCCCC1)CC2 [compound 17]
Mu opioid receptor
  IC50: 650 nM
Kappa opioid receptor
  IC50: 250 nM
Delta opioid receptor
  IC50: > 10000 nM

## O=C1N(C[C@@H](O)CNCCc2ccc3c(c2)OCO3)CN(c2ccc(F)cc2)C12CCN(Cc1cccc3ccccc13)CC2 [compound 254]
Mu opioid receptor
  IC50: 2830 nM
Kappa opioid receptor
  IC50: 800 nM
Delta opioid receptor
  IC50: > 10000 nM

## CC1(C)[C@H]2CC=C(CN3CCC4(CC3)C(=O)N(C[C@@H](O)CN)CN4c3ccc(F)cc3)[C@@H]1C2 [compound 619]
Mu opioid receptor
  Ki: 140 nM
Kappa opioid receptor
  Ki: 170 nM
Delta opioid receptor
  Ki: > 5000 nM

## O=C1N(C[C@@H](O)CN2CCN(c3cccc(C(F)(F)F)c3)CC2)CN(c2ccc(F)cc2)C12CCN(CC1CCCCCCC1)CC2 [Compound #66]
Mu opioid receptor
  IC50: 550 nM
Kappa opioid receptor
  IC50: 130 nM
Delta opioid receptor
  IC50: 5930 nM

## CC(C)(C)N(Cc1ccccc1)C[C@H](O)CN1CN(c2ccc(F)cc2)C2(CCN(Cc3cccc4ccccc34)CC2)C1=O [compound 250]
Mu opioid receptor
  IC50: 1200 nM
Kappa opioid receptor
  IC50: 380 nM
Delta opioid receptor
  IC50: > 10000 nM

## CN(C)CCN(Cc1ccccc1)C[C@H](O)CN1CN(c2ccc(F)cc2)C2(CCN(CC3CCCCCCC3)CC2)C1=O [compound 63]
Mu opioid receptor
  IC50: 3430 nM
Kappa opioid receptor
  IC50: 230 nM
Delta opioid receptor
  IC50: 8780 nM

## COc1ccc(CNC[C@H](O)CN2CN(c3ccc(F)cc3)C3(CCN(Cc4cccc5cccc(C)c45)CC3)C2=O)cc1 [compound 398]
Mu opioid receptor
  IC50: > 10000 nM
Kappa opioid receptor
  IC50: 250 nM
Delta opioid receptor
  IC50: > 10000 nM
